Source: BindingDB's records for doi:10.7270/Q2JQ0ZF7 (Nmmlsc, 2009)

Target: T1, GTPase KRas [1-37] (Homo sapiens, UniProt G3V5T7)
T1 construct: 1-37
Experiment: Ras wild-type GTP-binding inhibitors, SAR follow-up, biochemical, oxadiazole analogs, multiplex bead flow cytometry (AID 2053)
Conditions: not given

T1 sequence (G3V5T7 whole entry): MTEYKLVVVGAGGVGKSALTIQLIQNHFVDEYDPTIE

EC50 [µM] | SMILES
> 30 | COc1ccc(-c2noc(CCC(=O)N3CCN(c4ccc(OC)cc4)CC3)n2)cc1 [3-[3-(4-methoxyphenyl)-1,2,4-oxadiazol-5-yl]-1-[4-(4-methoxyphenyl)piperazin-1-yl]propan-1-one]
> 30 | COc1ccccc1-c1noc(CCC(=O)N2CCN(c3cc(C)ccc3C)CC2)n1 [UNM-0000306071]
> 30 | Cc1ccc(C)c(N2CCN(C(=O)CCc3nc(-c4ccc(N(C)C)cc4)no3)CC2)c1 [KUC103409N]
> 30 | Cc1ccc(C)c(N2CCN(C(=O)CCc3nc(-c4ccc(Cl)cc4)no3)CC2)c1 [UNM-0000306083]
> 30 | Cc1ccc(C)c(N2CCN(C(=O)CCc3nc(-c4cccc(Cl)c4)no3)CC2)c1 [UNM-0000306086]
> 30 | Cc1ccc(C)c(N2CCN(C(=O)CCc3nc(-c4ccc(C(F)(F)F)cc4)no3)CC2)c1 [1-[4-(2,5-dimethylphenyl)-1-piperazinyl]-3-[3-[4-(trifluoromethyl)phenyl]-1,2,4-oxadiazol-5-yl]-1-propanone]
> 30 | COc1ccc(-c2noc(CCC(=O)N3CCN(c4ccccc4C)CC3)n2)cc1
> 30 | Cc1ccc(-c2noc(CCC(=O)N3CCN(c4cc(C)ccc4C)CC3)n2)cc1 [1-[4-(2,5-dimethylphenyl)-1-piperazinyl]-3-[3-(4-methylphenyl)-1,2,4-oxadiazol-5-yl]-1-propanone]
> 30 | COc1ccc(-c2noc(CCC(=O)N3CCN(c4cccc(C)c4C)CC3)n2)cc1 [1-[4-(2,3-dimethylphenyl)-1-piperazinyl]-3-[3-(4-methoxyphenyl)-1,2,4-oxadiazol-5-yl]-1-propanone]
> 30 | COc1ccc(-c2noc(CCC(=O)N3CCN(c4cccc(OC)c4)CC3)n2)cc1 [KUC103349N]
> 30 | COc1ccc(-c2noc(CCC(=O)N3CCN(c4ccc(Br)cc4)CC3)n2)cc1 [1-[4-(4-bromophenyl)piperazin-1-yl]-3-[3-(4-methoxyphenyl)-1,2,4-oxadiazol-5-yl]propan-1-one]
> 30 | Cc1ccc(C)c(N2CCN(C(=O)CCc3nc(-c4cccc(Br)c4)no3)CC2)c1 [KUC103367N]
> 30 | COc1ccc(-c2coc(CCC(=O)N3CCN(c4cc(C)ccc4C)CC3)n2)cc1 [1-[4-(2,5-dimethylphenyl)piperazin-1-yl]-3-[4-(4-methoxyphenyl)-1,3-oxazol-2-yl]propan-1-one]
> 30 | COc1ccc(-c2noc(CCC(=O)N3CCC(c4cc(C)ccc4C)CC3)n2)cc1 [KUC103432N]
> 30 | COc1ccc(-c2noc(CCC(=O)N3CCN(c4ccccc4C(F)(F)F)CC3)n2)cc1 [UNM-0000306082]
> 30 | COc1ccc(-c2cc(CCC(=O)N3CCN(c4cc(C)ccc4C)CC3)[nH]n2)cc1 [UNM-0000306150]
> 30 | COc1ccc(-c2noc(CCC(=O)N3CCN(c4ccccc4Br)CC3)n2)cc1 [KUC103370N]
> 30 | Cc1ccc(C)c(N2CCN(C(=O)CCc3nc(-c4ccccc4Cl)no3)CC2)c1 [3-[3-(2-chlorophenyl)-1,2,4-oxadiazol-5-yl]-1-[4-(2,5-dimethylphenyl)-1-piperazinyl]-1-propanone]
> 30 | COc1ccc(-c2noc(CCC(=O)N3CCN(c4ccccc4)CC3)n2)cc1 [3-[3-(4-methoxyphenyl)-1,2,4-oxadiazol-5-yl]-1-(4-phenylpiperazin-1-yl)propan-1-one]
> 30 | COc1ccc(-c2noc(CCC(=O)N3CCN(c4ccccc4OC)CC3)n2)cc1 [3-[3-(4-methoxyphenyl)-1,2,4-oxadiazol-5-yl]-1-[4-(2-methoxyphenyl)-1-piperazinyl]-1-propanone]
> 30 | COc1ccc(-c2noc(CCC(=O)N3CCN(c4ccc(F)cc4)CC3)n2)cc1 [KUC103398N]
> 30 | Cc1ccc(C)c(N2CCN(C(=O)CCc3nc(-c4cccc(F)c4)no3)CC2)c1 [KUC103366N]

EC50 [µM] | SMILES
> 30 | COc1ccc(-c2noc(CCCC(=O)N3CCN(c4cc(C)ccc4C)CC3)n2)cc1 [KUC103353N]
> 30 | COc1ccc(-c2cccc(CCC(=O)N3CCN(c4cc(C)ccc4C)CC3)c2)cc1 [UNM-0000306127]
> 30 | COc1ccc(-c2cc(CCC(=O)N3CCN(c4cc(C)ccc4C)CC3)on2)cc1 [1-[4-(2,5-dimethylphenyl)piperazin-1-yl]-3-[3-(4-methoxyphenyl)-1,2-oxazol-5-yl]propan-1-one]
> 30 | COc1ccc(-c2noc(CCC(=O)N3CCN(c4ccc(Cl)cc4)CC3)n2)cc1 [UNM-0000306121]
> 30 | COc1ccc(-c2noc(CC(=O)N3CCN(c4cc(C)ccc4C)CC3)n2)cc1 [1-[4-(2,5-dimethylphenyl)piperazin-1-yl]-2-[3-(4-methoxyphenyl)-1,2,4-oxadiazol-5-yl]ethanone]
> 30 | Cc1ccc(C)c(N2CCN(C(=O)CCc3nc(-c4ccccc4C)no3)CC2)c1
> 30 | Cc1ccc(C)c(N2CCN(C(=O)CCc3nc(-c4cccc(C(F)(F)F)c4)no3)CC2)c1 [KUC103380N]
> 30 | COc1ccc(-c2noc(CCC(=O)N3CCN(c4cccc(C(F)(F)F)c4)CC3)n2)cc1 [1-{3-[3-(4-methoxyphenyl)-1,2,4-oxadiazol-5-yl]propanoyl}-4-[3-(trifluoromethyl)phenyl]piperazine]
> 30 | COc1ccc(-c2ccc(CCC(=O)N3CCN(c4cc(C)ccc4C)CC3)o2)cc1 [KUC103447N]
> 30 | Cc1ccc(C)c(N2CCN(C(=O)CCc3nc(-c4ccc(F)cc4)no3)CC2)c1 [KUC103364N]
> 30 | COc1ccc(-c2noc(CCC(=O)N3CCN(c4ccc(C(F)(F)F)cc4)CC3)n2)cc1 [3-[3-(4-methoxyphenyl)-1,2,4-oxadiazol-5-yl]-1-[4-[4-(trifluoromethyl)phenyl]piperazin-1-yl]propan-1-one]
> 30 | Cc1ccc(C)c(N2CCN(C(=O)CCc3nc(-c4ccccc4F)no3)CC2)c1 [KUC103401N]
> 30 | COc1ccc(-c2noc(CCC(=O)N3CCN(c4cccc(C)c4)CC3)n2)cc1 [UNM-0000306125]
> 30 | COc1ccc(-c2noc(CCCCC(=O)N3CCN(c4cc(C)ccc4C)CC3)n2)cc1 [1-[4-(2,5-dimethylphenyl)-1-piperazinyl]-5-[3-(4-methoxyphenyl)-1,2,4-oxadiazol-5-yl]-1-pentanone]
> 30 | COc1ccc(-c2ccc(CCC(=O)N3CCN(c4cc(C)ccc4C)CC3)[nH]2)cc1 [1-[4-(2,5-dimethylphenyl)piperazin-1-yl]-3-[5-(4-methoxyphenyl)-1H-pyrrol-2-yl]propan-1-one]
> 30 | COc1ccc(-c2noc(CCC(=O)N3CCN(c4ccc(C)cc4)CC3)n2)cc1 [3-[3-(4-methoxyphenyl)-1,2,4-oxadiazol-5-yl]-1-[4-(4-methylphenyl)piperazin-1-yl]propan-1-one]
> 30 | Cc1cccc(-c2noc(CCC(=O)N3CCN(c4cc(C)ccc4C)CC3)n2)c1 [1-[4-(2,5-dimethylphenyl)piperazin-1-yl]-3-[3-(3-methylphenyl)-1,2,4-oxadiazol-5-yl]propan-1-one]
> 30 | COc1ccc(-c2ccc(CCC(=O)N3CCN(c4cc(C)ccc4C)CC3)s2)cc1
> 30 | COc1ccc(-c2noc(CCC(=O)N3CCN(c4cccc(Cl)c4)CC3)n2)cc1
> 30 | COc1ccc(-c2noc(CCC(=O)N3CCN(c4cccc(F)c4)CC3)n2)cc1 [1-[4-(3-fluorophenyl)piperazin-1-yl]-3-[3-(4-methoxyphenyl)-1,2,4-oxadiazol-5-yl]propan-1-one]
> 30 | Cc1ccc(C)c(N2CCN(C(=O)CCc3nc(-c4ccccc4C(F)(F)F)no3)CC2)c1

Same assay, conditions: inactive by the depositor's call

EC50 [µM] | SMILES
0.017 | COc1ccc(-c2noc(CCC(=O)N3CCN(c4cccc(Br)c4)CC3)n2)cc1 [1-[4-(3-bromophenyl)-1-piperazinyl]-3-[3-(4-methoxyphenyl)-1,2,4-oxadiazol-5-yl]-1-propanone]
1.49 | COc1cccc(-c2noc(CCC(=O)N3CCN(c4cc(C)ccc4C)CC3)n2)c1
1.71 | COc1ccc(-c2noc(CCC(=O)N3CCN(c4cc(C)ccc4C)CC3)n2)cc1 [1-[4-(2,5-dimethylphenyl)-1-piperazinyl]-3-[3-(4-methoxyphenyl)-1,2,4-oxadiazol-5-yl]-1-propanone]
1.87 | COc1ccc(-c2noc(CCC(=O)N3CCN(c4ccccc4Cl)CC3)n2)cc1 [1-[4-(2-chlorophenyl)piperazin-1-yl]-3-[3-(4-methoxyphenyl)-1,2,4-oxadiazol-5-yl]propan-1-one]
0.869 | Cc1ccc(C)c(N2CCN(C(=O)CCc3nc(-c4ccccc4)no3)CC2)c1 [UNM-0000306070]
0.05 | COc1ccc(-c2noc(CCC(=O)N3CCN(c4ccccc4F)CC3)n2)cc1 [1-[4-(2-fluorophenyl)piperazin-1-yl]-3-[3-(4-methoxyphenyl)-1,2,4-oxadiazol-5-yl]propan-1-one]
0.033 | Cc1ccc(C)c(N2CCN(C(=O)CCc3nc(-c4ccccc4Br)no3)CC2)c1 [3-[3-(2-bromophenyl)-1,2,4-oxadiazol-5-yl]-1-[4-(2,5-dimethylphenyl)-1-piperazinyl]-1-propanone]
1.83 | Cc1ccc(C)c(N2CCN(C(=O)CCc3nc(-c4ccc(Br)cc4)no3)CC2)c1 [UNM-0000306072]
